{
  "source": "patent US20250129088A1",
  "about": "“CEREBLON E3 UBIQUITIN LIGASE INHIBITOR” (Gan & Lee Pharmaceuticals Co., Ltd., priority 2022, published 2025)",
  "key": {"VCaP cells": {"tested_on": "VCaP cells", "assay": "VCaP cell proliferation inhibition, CCK-8", "assay_type": "cell-based", "conditions": "Homo sapiens, 168 h, 7 days", "description": "The complete medium required for VCaP cells is DMEM high glucose (Gibco, Product number: 11995-065) basal medium containing 10% fetal bovine serum. […] Cell viability was detected using the CCK-8 kit (Beyotime, Product number: C0040) according to the manufacturer's instructions."}, "LNCaP FGC cells": {"tested_on": "LNCaP FGC cells", "assay": "LNCaP FGC cell proliferation inhibition, CCK-8", "assay_type": "cell-based", "conditions": "Homo sapiens, 96 h, 4 days", "description": "The complete medium required for LNCaP FGC cells is RPMI 1640 (ATCC, Product number: 30-2001) basal medium containing 10% fetal calf serum. […] Cell viability was detected using the CCK-8 kit (Beyotime, Product number: C0040) according to the manufacturer's instructions."}},
  "data": [
    {"smiles": "N#Cc1ccc(O[C@H]2CC[C@H](NC(=O)c3ccc(N4CCC(CN5CCC6(CC5)Cc5cc7c(cc5O6)C(=O)N(C5CCC(=O)NC5=O)C7=O)CC4)nn3)CC2)cc1Cl", "note": "(stereo partly drawn) [PROTAC 66, N-((1r,4r)-4-(3-chloro-4-cyanophenoxy)cyclohexyl)-6-(4-((6-(2,6-dioxopiperidine-3-yl)-5,7-dioxo-3,5,6,7-tetrahydrospiro[furo[2,3-f]isoindole-2,4′-piperidinyl]-1′-yl)methyl)piperidin-1-yl) pyridazine-3-carboxamide]", "values": [
      {"measurement": "IC50", "setting": "VCaP cells", "result": 0.05, "unit": "µM"},
      {"measurement": "IC50", "setting": "LNCaP FGC cells", "result": 3, "unit": "µM"}
    ]},
    {"smiles": "N#Cc1ccc(O[C@H]2CC[C@H](NC(=O)c3ccc(N4CC(N5CCC6(CC5)Cc5cc7c(cc5O6)C(=O)N(C5CCC(=O)NC5=O)C7=O)C4)nn3)CC2)cc1Cl", "note": "(stereo partly drawn) [PROTAC 67, N-((1r,4r)-4-(3-chloro-4-cyanophenoxy)cyclohexyl)-6-(3-(6-(2,6-dioxypiperidin-3-yl)-5,7-dioxo-3,5,6,7-tetrahydrospiro[furo[2,3-f]isoindole-2,4′-piperidin]-1′-yl)azetidin-1-yl)pyridazine-3-carboxamide]", "values": [
      {"measurement": "IC50", "setting": "VCaP cells", "result": 6.5, "unit": "µM"},
      {"measurement": "IC50", "setting": "LNCaP FGC cells", "result": 6.1, "unit": "µM"}
    ]},
    {"smiles": "CC1(C)C(=O)N(c2ccc(C#N)c(C(F)(F)F)c2)C(=S)N1c1ccc(C(=O)N2CCC(F)(CN3CC4(CCc5cc6c(cc5O4)C(=O)N(C4CCC(=O)NC4=O)C6)C3)CC2)c(F)c1", "note": "(stereo not drawn) [PROTAC 68]", "values": [
      {"measurement": "IC50", "setting": "VCaP cells", "result": 0.03, "unit": "µM"},
      {"measurement": "IC50", "setting": "LNCaP FGC cells", "result": 3.86, "unit": "µM"}
    ]},
    {"smiles": "CC1(C)C(=O)N(c2ccc(C#N)c(C(F)(F)F)c2)C(=S)N1c1ccc(C(=O)N2CCC(CN3CCC4(CC3)COc3cc5c(cc3C4)C(=O)N(C3CCC(=O)NC3=O)C5=O)CC2)c(F)c1", "note": "(stereo not drawn) [PROTAC 69]", "values": [
      {"measurement": "IC50", "setting": "VCaP cells", "result": 4.26, "unit": "µM"},
      {"measurement": "IC50", "setting": "LNCaP FGC cells", "result": 3.39, "unit": "µM"}
    ]},
    {"smiles": "CC1(C)C(=O)N(c2ccc(C#N)c(C(F)(F)F)c2)C(=S)N1c1ccc(C(=O)N2CC[C@@H](CN3CCC4(CC3)COc3cc5c(cc3C4)C(=O)N(C3CCC(=O)NC3=O)C5=O)C2)c(F)c1", "note": "(stereo partly drawn) [PROTAC 70, 4-(3-(4-((3S)-3-((7′-(2,6-dioxopiperidin-3-yl)-6′,8′-dioxo-4′,6′,7′,8′-tetrahydro-2′H-spiro[piperidine-4,3′-pyrano[2,3-f]isoindole]-1-yl)methyl)pyrrolidine-1-carbonyl)-3-fluorophenyl)-4,4-dimethyl-5-oxo-2-thioimidazolidin-1-yl)-2-(trifluoromethyl)benzonitrile]", "values": [
      {"measurement": "IC50", "setting": "VCaP cells", "result": 9.73, "unit": "µM"},
      {"measurement": "IC50", "setting": "LNCaP FGC cells", "result": 7.06, "unit": "µM"}
    ]},
    {"smiles": "CC1(C)C(=O)N(c2ccc(C#N)c(C(F)(F)F)c2)C(=S)N1c1ccc(C(=O)N2CCC(CN3CCC4(CCc5cc6c(cc5O4)CN(C4CCC(=O)NC4=O)C6=O)CC3)CC2)c(F)c1", "note": "(stereo not drawn) [PROTAC 72]", "values": [
      {"measurement": "IC50", "setting": "VCaP cells", "result": 7.4, "unit": "µM"},
      {"measurement": "IC50", "setting": "LNCaP FGC cells", "result": 5.34, "unit": "µM"}
    ]},
    {"smiles": "CC1(C)C(=O)N(c2ccc(C#N)c(C(F)(F)F)c2)C(=S)N1c1ccc(C(=O)N2CC3(CCC(N4CCC5(CC4)COc4cc6c(cc4C5)C(=O)N(C4CCC(=O)NC4=O)C6=O)CC3)C2)c(F)c1", "note": "(stereo not drawn) [PROTAC 73, 4-(3-(4-(7-(7′-(2,6-dioxopiperidin-3-yl)-6′,8′-dioxo-4′,6′,7′,8′-tetrahydro-2′H-spiro[piperidin-4,3′-pyrano[2,3-f]isoindol]-1-yl)-2-azaspiro[3.5]nonane-2-carbonyl)-3-fluorophenyl)-4,4-dimethyl-5-oxo-2-thioimidazolidin-1-yl)-2-(trifluoromethyl)benzonitrile]", "values": [
      {"measurement": "IC50", "setting": "VCaP cells", "result": 2.49, "unit": "µM"},
      {"measurement": "IC50", "setting": "LNCaP FGC cells", "result": 4.53, "unit": "µM"}
    ]},
    {"smiles": "CC1(C)C(=O)N(c2ccc(C#N)c(C(F)(F)F)c2)C(=S)N1c1ccc(C(=O)N2CCC3(CCC(N4CCC5(CC4)COc4cc6c(cc4C5)C(=O)N(C4CCC(=O)NC4=O)C6=O)CC3)C2)c(F)c1", "note": "(stereo not drawn) [PROTAC 74, 4-(3-(4-(8-(7′-(2,6-dioxopiperidin-3-yl)-6′ 8′-dioxo-4′,6′,7′,8′-tetrahydro-2′H-spiro[piperidin-4,3′-pyrano[2,3-f]isoindol]-1-yl)-2-azaspiro[4.5]decane-2-carbonyl)-3-fluorophenyl)-4,4-dimethyl-5-oxo-2-thioimidazolidin-1-yl)-2-(trifluoromethyl)benzonitrile]", "values": [
      {"measurement": "IC50", "setting": "VCaP cells", "result": 3.26, "unit": "µM"},
      {"measurement": "IC50", "setting": "LNCaP FGC cells", "result": 2.66, "unit": "µM"}
    ]},
    {"smiles": "COC1(CN2CC3(COc4cc5c(cc4C3)C(=O)N(C3CCC(=O)NC3=O)C5=O)C2)CCN(C(=O)c2ccc(N3C(=S)N(c4ccc(C#N)c(C(F)(F)F)c4)C(=O)C3(C)C)cc2F)CC1", "note": "(stereo not drawn) [PROTAC 75]", "values": [
      {"measurement": "IC50", "setting": "VCaP cells", "result": 0.17, "unit": "µM"},
      {"measurement": "IC50", "setting": "LNCaP FGC cells", "result": 0.53, "unit": "µM"}
    ]}
  ]
}
